Data taken from the NIST ThermoML archive (doi:10.1016/j.jct.2014.05.014).
± gives the expanded uncertainty stated by the source.

Test: refractive index (Na D-line) (dimensionless); cn = amount concentration of the nth substance listed, in mol/dm3
Details: 101.3 kPa, Liquid, Standard Abbe refractometry

SMILES: CC(N)C(=O)[O-].[K+] (stereo not drawn) [potassium DL-alaninate] + O
- refractive index (303.15 K, c1 = 0.526): 1.3409 ± 0.00033
- refractive index (303.15 K, c1 = 1.009): 1.34955 ± 0.00037
- refractive index (303.15 K, c1 = 1.501): 1.35822 ± 0.00042
- refractive index (303.15 K, c1 = 2.005): 1.36647 ± 0.00048
- refractive index (303.15 K, c1 = 2.501): 1.37461 ± 0.00055
- refractive index (303.15 K, c1 = 2.986): 1.38281 ± 0.0006
- refractive index (303.15 K, c1 = 3.498): 1.39058 ± 0.00065
- refractive index (308.15 K, c1 = 0.526): 1.34021 ± 0.00033
- refractive index (308.15 K, c1 = 1.009): 1.3488 ± 0.00037
- refractive index (308.15 K, c1 = 1.501): 1.35743 ± 0.00042
- refractive index (308.15 K, c1 = 2.005): 1.36566 ± 0.00048
- refractive index (308.15 K, c1 = 2.501): 1.37375 ± 0.00055
- refractive index (308.15 K, c1 = 2.986): 1.38192 ± 0.0006
- refractive index (308.15 K, c1 = 3.498): 1.38964 ± 0.00065
- refractive index (313.15 K, c1 = 0.526): 1.33947 ± 0.00033
- refractive index (313.15 K, c1 = 1.009): 1.34802 ± 0.00037
- refractive index (313.15 K, c1 = 1.501): 1.35661 ± 0.00042
- refractive index (313.15 K, c1 = 2.005): 1.36481 ± 0.00048
- refractive index (313.15 K, c1 = 2.501): 1.37285 ± 0.00054
- refractive index (313.15 K, c1 = 2.986): 1.38098 ± 0.0006
- refractive index (313.15 K, c1 = 3.498): 1.3887 ± 0.00065
- refractive index (318.15 K, c1 = 0.526): 1.33867 ± 0.00033
- refractive index (318.15 K, c1 = 1.009): 1.3472 ± 0.00037
- refractive index (318.15 K, c1 = 1.501): 1.35576 ± 0.00042
- refractive index (318.15 K, c1 = 2.005): 1.36391 ± 0.00047
- refractive index (318.15 K, c1 = 2.501): 1.37195 ± 0.00054
- refractive index (318.15 K, c1 = 2.986): 1.38002 ± 0.0006
- refractive index (318.15 K, c1 = 3.498): 1.38775 ± 0.00065
- refractive index (323.15 K, c1 = 0.526): 1.33782 ± 0.00033
- refractive index (323.15 K, c1 = 1.009): 1.34634 ± 0.00037
- refractive index (323.15 K, c1 = 1.501): 1.35486 ± 0.00042
- refractive index (323.15 K, c1 = 2.005): 1.363 ± 0.00047
- refractive index (323.15 K, c1 = 2.501): 1.37103 ± 0.00054
- refractive index (323.15 K, c1 = 2.986): 1.37908 ± 0.0006
- refractive index (323.15 K, c1 = 3.498): 1.38677 ± 0.00065
- refractive index (328.15 K, c1 = 0.526): 1.33692 ± 0.00033
- refractive index (328.15 K, c1 = 1.009): 1.34542 ± 0.00037
- refractive index (328.15 K, c1 = 1.501): 1.35394 ± 0.00042
- refractive index (328.15 K, c1 = 2.005): 1.36206 ± 0.00047
- refractive index (328.15 K, c1 = 2.501): 1.37004 ± 0.00054
- refractive index (328.15 K, c1 = 2.986): 1.37809 ± 0.0006
- refractive index (328.15 K, c1 = 3.498): 1.38576 ± 0.00064
- refractive index (333.15 K, c1 = 0.526): 1.33599 ± 0.00033
- refractive index (333.15 K, c1 = 1.009): 1.34446 ± 0.00037
- refractive index (333.15 K, c1 = 1.501): 1.35299 ± 0.00042
- refractive index (333.15 K, c1 = 2.005): 1.3611 ± 0.00047
- refractive index (333.15 K, c1 = 2.501): 1.36904 ± 0.00054
- refractive index (333.15 K, c1 = 2.986): 1.3771 ± 0.00059
- refractive index (333.15 K, c1 = 3.498): 1.38471 ± 0.00064
- refractive index (338.15 K, c1 = 0.526): 1.335 ± 0.00033
- refractive index (338.15 K, c1 = 1.009): 1.34349 ± 0.00037
- refractive index (338.15 K, c1 = 1.501): 1.352 ± 0.00042
- refractive index (338.15 K, c1 = 2.005): 1.3601 ± 0.00047
- refractive index (338.15 K, c1 = 2.501): 1.36803 ± 0.00054
- refractive index (338.15 K, c1 = 2.986): 1.3761 ± 0.00059
- refractive index (338.15 K, c1 = 3.498): 1.38364 ± 0.00064
- refractive index (343.15 K, c1 = 0.526): 1.33402 ± 0.00033
- refractive index (343.15 K, c1 = 1.009): 1.34248 ± 0.00037
- refractive index (343.15 K, c1 = 1.501): 1.35098 ± 0.00042
- refractive index (343.15 K, c1 = 2.005): 1.3591 ± 0.00047
- refractive index (343.15 K, c1 = 2.501): 1.36701 ± 0.00054
- refractive index (343.15 K, c1 = 2.986): 1.37507 ± 0.00059
- refractive index (343.15 K, c1 = 3.498): 1.38259 ± 0.00064
